{"source": "patent US12678490B2", "about": "“Pharmaceutical combinations comprising insulin and at least an agent selected from meloxicam, bromfenac sodium, acetylsalicylic acid, salicyclic acid and paracetamol” (Eli Lilly and Company, priority 2017, dated 2026)", "key": {"plasma glucose": {"test_system": "plasma glucose", "experiment": "Pre-clinical in vivo CSII model, local or oral dexamethasone with insulin lispro bolus", "parameters": "species or system Yucatan mini pigs", "settings": "for Baseline-adjusted area under the curve for plasma glucose over the 6 hours following an insulin bolus: 0.15 U/kg U100 insulin lispro bolus, mean ± SEM; for improving infusion site viability: local delivery, 0.25 mg/h (6 mg/d)"}, "[1]": {"experiment": "Insulin lispro co-formulation stability, main peak loss and HMWP growth by analytical RP-HPLC", "format": "physicochemical", "settings": "co-formulated with insulin lispro, 37° C.", "protocol": "Two separate formulations are prepared as described above with 20 mM acetylsalicylic acid or 90 mM paracetamol; however, the m-cresol is excluded from the formulation. All samples are adjusted with water to achieve the final concentrations. […] All samples are filtered using 0.22 um syringe filter ([…]). […] The samples are visibly inspected for particulate or precipitation throughout study. Insulin lispro main peak loss and HMWP growth are tracked over time using HPLC. […] The UV detector is set to 214 nm wavelength, column temperature to 40° C., flowrate to 1 mL/min, and injection volume to 5 uL of each formulation. […] The data is collected and slope analysis of rate of change per day is performed using Y by X plots using commercial software."}}, "data": [{"smiles": "C[C@@H]1C[C@H]2[C@@H]3CCC4=CC(=O)C=C[C@]4(C)[C@@]3(F)[C@@H](O)C[C@]2(C)[C@@]1(O)C(=O)CO", "note": "[Dexamethasone, (8S,9R,10S,11S,13S,14S,16R,17R)-9-fluoro-11,17-dihydroxy-17-(2-hydroxyacetyl)-10,13,16-trimethyl-6,7,8,11,12,14,15,16-octahydrocyclopenta[a]phenanthren-3-one]", "values": [{"measurement": "Baseline-adjusted area under the curve for plasma glucose over the 6 hours following an insulin bolus", "setting": "plasma glucose; Oral: 25 uL/h insulin placebo + twice daily oral 3 mg dexamethasone, day 0", "result": "−14218 ± 754"}, {"measurement": "Baseline-adjusted area under the curve for plasma glucose over the 6 hours following an insulin bolus", "setting": "plasma glucose; Oral: 25 uL/h insulin placebo + twice daily oral 3 mg dexamethasone, day 3", "result": "−5265 ± 2130"}, {"measurement": "Baseline-adjusted area under the curve for plasma glucose over the 6 hours following an insulin bolus", "setting": "plasma glucose; Oral: 25 uL/h insulin placebo + twice daily oral 3 mg dexamethasone, day 5", "result": "−8109 ± 987"}, {"measurement": "Baseline-adjusted area under the curve for plasma glucose over the 6 hours following an insulin bolus", "setting": "plasma glucose; Oral: 25 uL/h insulin placebo + twice daily oral 3 mg dexamethasone, day 7", "result": "−7750 ± 1491"}, {"measurement": "Baseline-adjusted area under the curve for plasma glucose over the 6 hours following an insulin bolus", "setting": "plasma glucose; Oral: 25 uL/h insulin placebo + twice daily oral 3 mg dexamethasone, day 10", "result": "−4266 ± 1551"}, {"measurement": "Baseline-adjusted area under the curve for plasma glucose over the 6 hours following an insulin bolus", "setting": "plasma glucose; Subcutaneous: continuous infusion of 0.25 mg/h dexamethasone, day 0", "result": "−16700 ± 2027"}, {"measurement": "Baseline-adjusted area under the curve for plasma glucose over the 6 hours following an insulin bolus", "setting": "plasma glucose; Subcutaneous: continuous infusion of 0.25 mg/h dexamethasone, day 3", "result": "−12591 ± 873"}, {"measurement": "Baseline-adjusted area under the curve for plasma glucose over the 6 hours following an insulin bolus", "setting": "plasma glucose; Subcutaneous: continuous infusion of 0.25 mg/h dexamethasone, day 5", "result": "−12297 ± 755"}, {"measurement": "Baseline-adjusted area under the curve for plasma glucose over the 6 hours following an insulin bolus", "setting": "plasma glucose; Subcutaneous: continuous infusion of 0.25 mg/h dexamethasone, day 7", "result": "−7149 ± 1555"}, {"measurement": "Baseline-adjusted area under the curve for plasma glucose over the 6 hours following an insulin bolus", "setting": "plasma glucose; Subcutaneous: continuous infusion of 0.25 mg/h dexamethasone, day 10", "result": "−4893 ± 775"}, {"measurement": "improving infusion site viability", "setting": "plasma glucose", "result": "up to 5 days"}, {"measurement": "improving infusion site viability", "setting": "plasma glucose; listed as dexamethosone", "result": 5, "unit": "days"}, {"measurement": "effect on infusion site viability", "setting": "plasma glucose; orally delivered", "result": "no effect"}]}, {"smiles": "CC(=O)Oc1ccccc1C(=O)O", "note": "[acetylsalicylic acid, 2-acetoxybenzoic acid]", "values": [{"measurement": "impact on insulin lispro stability", "setting": "[1]", "result": "minimal impact on insulin lispro stability"}]}, {"smiles": "CC(=O)Nc1ccc(O)cc1", "note": "[paracetamol, N-(4-hydroxypehnyl)acetamide]", "values": [{"measurement": "impact on insulin lispro stability", "setting": "[1]", "result": "minimal impact on insulin lispro stability"}]}]}
